From patent publication US11523995B2, “Compositions and methods for ablating niche cells in testis and other epithelial cells and methods relating thereto” (Duke University, priority 2017, dated 2022)

Tests used:
donor spermatogenesis = assay: Cryopreserved donor testicular cell transplantation into BC treated testis; type: in vivo, mouse; settings: cryopreserved (39 days) cells transplanted 7 days after BC; eight weeks after transplantation
Procedure: After dissociation and washing steps, samples were placed in 2.0 ml cryovials (Corning, N.Y., USA) containing 500 μl of cryopreservation medium, (10% FBS+DMEM containing 10% DMSO). Samples were placed in a controlled freezing device (Mr. Frosty™ Freezing Container, Thermo Fisher Scientific) and cooled in a −80° C. freezer overnight. The following morning the cryovials were transferred to Liquid nitrogen for storage. Prior to use, samples were thawed quickly in a bath warmed to 37° C.
(§1) 10-15 μl of approximately 1×10^6/ml isolated Sertoli cells or 1×10^8/ml (testicular cells) were injected through the rete testis into the seminiferous tubules of a host mouse on day 4 or day 7 after ablation treatment. A glass needle was back-loaded with the cell suspension and 0.04% Trypan blue to track the efficiency of the injection.
To test the efficiency of engraftment using cryopreserved donor tissue, we dissociated testis tissue from CAG-EGFP pups, and cryopreserved cells with cryoprotectant including 10% DMSO in liquid nitrogen. Seven days after BC treatment of wild type host mice, cryopreserved (39 days) donor testicular cells were thawed and introduced into the rete testis (FIG. 8). […] In some tubules, cryopreserved Sertoli cells supported host spermatogenesis, and in other tubules, cryopreserved donor Sertoli cells colonized with donor SSCs and supported donor spermatogenesis.

host spermatogenesis = assay: Donor Sertoli cell transplantation into testis 4 days post BC treatment; type: in vivo, mouse; settings: 0.02% BC 4 days before Sox9-ECFP Sertoli cell transplantation; 8 weeks after transplantation
Procedure: On the day of transplantation, FACS analysis was used to isolate donor Sertoli cells. Testes of Sox9-CFP mouse pups were dissected. Testicular cells were enzymatically dissociated using 1 mg/ml collagenase type IV for 15 minutes followed by incubation in 0.25% trypsin and 1 mM EDTA for 10 min at 37° C. The reaction was stopped by addition of serum and cells were washed twice. The cell suspension was filtered through a 40 μm nylon mesh and resuspended in 10% FBS+DMEM.
as §1
To determine whether donor Sertoli cells can efficiently engraft drug-depleted cords, we transplanted Sertoli cells from 6.5-10.5 dpp Sox9-ECFP mouse pups. The host mouse was prepared by injection of the 0.02% BC solution 4 days prior to transplantation. Cells from a neonatal Sox9-ECFP donor testis were dissociated by enzymatic treatment, Sertoli cells were isolated by FACS, and injected into host seminiferous tubules through the rete testis (FIG. 6). […] Full spermatogenesis was detected 8 weeks after transplantation in 2 of 4 engrafted testes.

Sertoli cells = assay: Neonatal testis Sertoli cell selective depletion in vitro (testis tissue culture, immunofluorescence); type: cell-based, mouse; settings: 0.02% BC 10 min, cultured 4 days
Procedure: Fragments of the mouse testis were incubated with 0.02% BC for 10 min. After washing several times with PBS, tissues were placed atop 1.5% agarose blocks (214530; Difco), prepared and placed in 6 well tissue culture plates (353046; Falcon) with ˜500 μl of 10% FBS+DMEM (11995-065; Gibco) to reach halfway up the side of the block. After culture, tissues were washed in PBS and fixed for immunofluorescence. The dog testis tissues were incubated with 0.02% or 0.03% BC for 10 min and cultured with 10% KnockOut Serum Replacement (KSR) (Invitrogen; 10828-028)+DMEM (Yokonishi, T., et al. Methods in Molecular Biology 927: 479-488 (2013)). The culture incubator was supplied with 5% (vol/vol) carbon dioxide in air and maintained at 37° C.
For cultured neonatal mouse testes, whole-mount immunofluorescence analysis was performed. Samples were fixed overnight with 4% (wt/vol) paraformaldehyde in PBS at 4° C. After several washes in PBTx (PBS plus 1% Triton X-100), samples were incubated in blocking solution (1% PBTx plus 10% FBS and 3% BSA) for 1 h at room temperature. Primary antibodies were diluted in blocking solution and applied to samples for 2 days at 4° C. After several washes in 1% PBT, fluorescent secondary antibodies were applied for 2 days at 4° C.
We incubated a neonatal testis in 0.02% BC solution for 10 min (or PBS as a control), washed the testis several times with PBS and cultured for 4 days at the surface/air interface in wells atop an agarose block (FIG. 1). At the end of that time, the testis was fixed and stained for immunofluorescence analysis using an antibody against the Sertoli cell marker, SOX9 (Sry-box 9). […] Although the number of F4/80 positive macrophages was increased in the interstitium of drug treated testis, other cell types in the testis including GFRα1 (GDNF family receptor al) and E-CAD (Cadherin1)-positive SSCs, and 3βHSD (3β-hydroxysteroid dehydrogenase)-positive Leydig cells were spared.

epithelial cells = assay: In vitro epithelial cell ablation in kidney, GI tract, liver and lung tissue culture; type: cell-based, mouse; settings: 0.03% BC 10 min, cultured 4 days
Procedure: Fragments of the mouse kidney, GI tract, liver and lung were incubated with 0.03% BC for 10 min. After washing several times with PBS, tissues were placed atop 1.5% agarose blocks (214530; Difco), prepared and placed in 6 well tissue culture plates (353046; Falcon) with ˜500 μl of 10% KnockOut Serum Replacement (KSR) (Invitrogen; 10828-028)+DMEM (11995-065; Gibco) to reach halfway up the side of the block. After culture, tissues were washed in PBS and fixed for immunofluorescence. The culture incubator was supplied with 5% (vol/vol) carbon dioxide in air and maintained at 37° C.
We incubated a neonatal kidney, GI tract, liver and lung tissues in 0.03% BC solution for 10 min, washed the tissues several times with PBS and cultured for 4 days at the surface/air interface in wells atop an agarose block (FIG. 9). At the end of that time, the tissues were fixed and stained for immunofluorescence analysis using an antibody against E-CAD (Cadherin1), epithelial marker. […] Although epithelial cells were eliminated in drug treated tissues, LMN (laminin) positive basement membrane and stromal cells which is stained with PDGFRβ were maintained.

benzalkonium chloride [BC]
host testes colonized by cryopreserved Sertoli cells and SSCs (donor spermatogenesis): 3/3
hosts with full spermatogenesis from donor cells (donor spermatogenesis): 2
engrafted testes with full spermatogenesis (host spermatogenesis): 2 of 4
Sertoli cell elimination (SOX9 immunofluorescence) (Sertoli cells): specifically eliminated Sertoli cells
effect on other testis cell types (GFRα1 and E-CAD-positive SSCs, 3βHSD-positive Leydig cells) (Sertoli cells): spared
number of F4/80 positive macrophages in the interstitium (Sertoli cells): increased
LMN positive basement membrane and PDGFRβ stromal cells (epithelial cells): maintained
epithelial cell elimination (E-CAD immunofluorescence) (epithelial cells; neonatal kidney, GI tract, liver and lung): specifically eliminated epithelial cells
